# Source: US9012152B2, “Anti-bacterial peptides and methods of treating diseases using same” (Yissum Research Development Company of the Hebrew …, priority 2007, dated 2015)
# What was measured:
# Effect of pH on EDF = assay type: physicochemical; conditions: supernatant incubated at pH 3, 5, 7, 9 or 11 for 2 hours; extreme pH; readout: restoring mazEF-mediated cell death
# Method: Effect of pH on EDF: Supernatants from the “donor” cultures described above were incubated at pH 3, 5, 7, 9 or 11 for 2 hours and titrated to PH 7. Their ability to restore mazEF-mediated cell death to a diluted culture was determined as described above.
# [1] = Effect of temperature on EDF; assay type: physicochemical; conditions: supernatant incubated 10 minutes; high temperature (80° C. to 100° C.)
# Method: Effect of temperature on EDF: Supernatants from the “donor” cultures described above were incubated at 37° C., 60° C., 80° C., or 100° C. for 10 minutes and cooled to 37° C. Their ability to restore mazEF-mediated cell death to a diluted culture was determined as described above.
# proteinase K = proteinase K (Parengyodontium album, UniProt P06873); test: Effect of proteinase K on EDF; conditions: supernatant with proteinase K-agarose beads, 37° C., 2 hours
# Sequence of proteinase K (P06873 106-384): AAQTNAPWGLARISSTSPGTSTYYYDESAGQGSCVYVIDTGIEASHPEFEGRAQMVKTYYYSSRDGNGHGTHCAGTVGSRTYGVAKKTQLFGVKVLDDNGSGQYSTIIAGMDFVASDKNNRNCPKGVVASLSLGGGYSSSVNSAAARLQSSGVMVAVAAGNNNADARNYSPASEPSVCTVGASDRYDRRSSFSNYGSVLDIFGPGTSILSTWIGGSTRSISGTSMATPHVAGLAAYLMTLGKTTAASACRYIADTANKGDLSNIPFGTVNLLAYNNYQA
# Method: Effect of proteinase K on EDF: Supernatants from the “donor” cultures described above were incubated with shaking at 37° C. for 2 hours as such or with agarose bease or with proteinase K-agarose beads. The beads were then removed by centrifugation at 14,000 rpm for 10 minutes. Their ability to restore mazEF-mediated cell death to a diluted culture was determined as described above.
# [2] = system: E. coli MC4100relA^+wt(WT) and MC4100relA^+ΔmazEF; test: Killing of E. coli cells by chemically synthesized EDF in combination with other antibiotic; assay type: cell-based; conditions: diluted culture
# Method: Killing of E. coli cells by chemically synthesized EDF in combination with other antibiotic: E. coli MC4100relA^+wt(WT) and MC4100relA^+ΔmazEF (ΔmazEF) were grown for 12 hours in M9 medium with shaking (160 rpm). Then, cells were diluted 1:100 in M9 medium and were grown with shaking (160 rpm) at 37° C. to a mid-logarithmic phase (OD600=0.6). Duplicate samples were removed from the cultures at a density of 2.5×10^8 (Dense), diluted in pre-heated M9 medium to the density of 3×10^4 (M9) or diluted in pre-heated M9 applied with different concentrations of EDF. The samples were incubated for 10 minutes at 37° C. without shaking Then rifampicin (10 μg/ml) was added and the cells were incubated for 10 minutes without shaking. The cells were centrifuged in 14000 rpm for 5 minutes and washed in pre-heated saline. Then, the cells were diluted, plated on LB plates and incubated at 37° C. for 12 hours. Cell killing was calculated by comparing the number of the colony-forming ability of cells treated by stressful conditions to those of the cells that were not exposed to the treatment.
# [3] = system: E. coli MC4100relA^+wt (WT) and MC4100relA^+ΔmazEF; test: Killing of E. coli cells by chemically synthesized EDF itself; assay type: cell-based; conditions: chemically synthesized EDF by itself (without antibiotic), 3 hours
# Method: Killing of E. coli cells by chemically synthesized EDF itself: E. coli MC4100relA^+wt (WT) and MC4100relA^+ΔmazEF (ΔmazEF) were grown for 12 hours in M9 medium with shaking (160 rpm). Then, cells were diluted 1:100 in M9 medium and were grown with shaking (160 rpm) at 37° C. to a mid-logarithmic phase (OD600=0.6). Samples were removed from the cultures at a density of 2.5×10^8 (Dense), centrifuged in 14000 rpm for 5 minutes and washed in pre-heated M9. The samples were applied with different concentrations of EDF, incubated for 3 hours at 37° C. without shaking. Then, cells were centrifuged in 14000 rpm for 5 minutes and washed in pre-heated saline. Then, the cells were diluted, plated on LB plates and incubated at 37° C. for 12 hours. Cell killing was calculated by comparing the number of the colony-forming ability of cells treated by stressful conditions to those of the cells that were not exposed to the treatment.
# MC4100relA^+ = test: EDF response of recipient culture, strain MC4100relA^+; assay type: cell-based, E. coli; conditions: rifampicin 10 μg/ml
# Method: (§1) Comparison of EDF response in MC4100relA^+, K38, W3110, and MG1655 E. coli strains: Cultures of MC4100relA^+, K38, W3110, and MG1655 E. coli were grown as described in Example 1. When the cultures reached a density of 2.5×10^8 cells/ml, duplicate samples were removed and diluted to 3×10^4 cells/ml in pre-heated supernatant of a dense culture of MC4100relA^+(WT) which had been titrated to have an EDF concentration of either 1 unit/ml or 10 units/ml (quantified as described in Example 3). After incubation without shaking at 37° C. for 10 minutes, rifampicin (10 μg/ml) was added, and the culture was incubated without shaking at 37° C. for an additional 10 minutes. Cells were centrifuged in 14,000 rpm for 5 minutes and washed in pre-heated saline. Then, the cells were diluted, plated on LB plates, and incubated at 37° C. for 12 hours. Cell survival was calculated by comparing the colony-forming units (CFUs) of treated cells to those of untreated cells.
# K-38 = test: EDF response of recipient culture, strain K-38; assay type: cell-based, E. coli; conditions: rifampicin 10 μg/ml
# Method: as §1
# MG1655 = test: EDF response of recipient culture, strain MG1655; assay type: cell-based, E. coli; conditions: rifampicin 10 μg/ml
# Method: as §1
# W3110 = test: EDF response of recipient culture, strain W3110; assay type: cell-based, E. coli; conditions: rifampicin 10 μg/ml
# Method: as §1
# [4] = system: E. Coli MC4100relA^+ cells, K38 cells and W3110; test: Chemically synthesized EDF restores mazEF mediated cell death to a dilute culture; assay type: cell-based; conditions: synthetic EDF 2.5 ng/ml
# Method: Chemically synthesized EDF restores mazEF mediated cell death to a dilute culture: E. Coli MC4100relA^+ cells, K38 cells and W3110 and ΔmazEF cells were grown as described in Example 1 herein above. At a density of 2.5×10^8 cells/ml, samples were either not diluted (dense) or diluted to 3×10^4 cells/ml in pre-warmed M9 medium (Diluted culture) or in a pre-warmed M9 applied with chemically synthesized EDF (2.5 ng/ml; diluted culture+EDF). For FIGS. 12A-C, samples were incubated with rifampicin as in FIG. 2A. For FIG. 13A, samples were incubated in trimethorpin (2 μg/ml) for 1 hour and for FIG. 13B samples were incubated in chlorapmphenicol (50 μg/ml) for 20 minutes.
# E. coli MC4100relA^+ = test: E. coli mazEF-mediated cell death in the presence of synthesized wild type and mutated EDF; assay type: cell-based; conditions: 1 μg/ml of peptide; rifampicin 10 μg/ml, 10 minutes; diluted culture 3×10^4
# Method: (§2) E. coli mazEF-mediated cell death in the presence of synthesized wild type (WT) and mutated EDF. E. coli MC4100relA^+t(WT) and MC4100relA^+ΔmazEF (ΔmazEF) were grown for 12 hours in M9 medium with shaking (160 rpm). Then, cells were diluted 1:100 in M9 medium and were grown with shaking (160 rpm) at 37° C. to a mid-logarithmic phase (OD600=0.6). Duplicate samples were removed from the cultures at a density of 2.5×10^8 (Dense), diluted in pre-heated M9 medium to the density of 3×10^4 (M9) or diluted in pre-heated M9 applied with 1 μg/ml of one of the synthesized EDFs (SEQ ID NOs: 1-6). The samples were incubated for 10 minutes at 37° C. without shaking. Then rifampicin (10 μg/ml) was added and the cells were incubated for 10 minutes without shaking. The cells were centrifuged in 14000 rpm for 5 minutes and washed in pre-heated saline. Then, the cells were diluted, plated on LB plates and incubated at 37° C. for 12 hours. Cell killing was calculated by comparing the number of the colony-forming ability of cells treated by stressful conditions to those of the cells that were not exposed to the treatment.
# E. Coli NC4100relA^+ = test: Ability of mutant EDF molecules to inhibit wild type EDF activity; assay type: cell-based; conditions: constant amount (50 ng/ml) of mutated EDF, various concentrations of WT EDF
# Method: FIG. 15 is a graph illustrating the ability of mutant EDF molecules to inhibit wild type EDF activity. The […] peptides analyzed include NNWNN (SEQ ID NO: 1); GNWNN (SEQ ID NO: 2); NGWNN (SEQ ID NO: 3); NNGNN (SEQ ID NO: 4); NNWGN (SEQ ID NO: 5); and NNWNG (SEQ ID NO: 6).
# Ability of mutant EDF molecules to inhibit wild type EDF activity: Various concentration of chemically synthesized WT EDF (SEQ ID NO: 1) were added to diluted cultures of E. Coli NC4100relA^+ containing a constant amount (50 ng/ml) of each of the mutated EDF described in Table 6. The Experiment was carried out as described herein above.
# E. Coli MC41relA^+ = test: EDF activity of modified derivatives (size and external Asn residues); assay type: cell-based; conditions: various concentrations added to diluted cultures; incubated with rifampicin
# Method: The […] peptides analyzed include NNWNN (SEQ ID NO: 1); GNWNN (SEQ ID NO: 2); NGWNN (SEQ ID NO: 3); NNGNN (SEQ ID NO: 4); NNWGN (SEQ ID NO: 5); and NNWNG (SEQ ID NO: 6). […] Chemically synthesized EDF (SEQ ID NO: 1) or its modified derivatives were added at various concentrations to diluted cultures of E. Coli MC41relA^+. No EDF was added to a control culture. […] Samples were incubated with rifampicin as described in Example 1.
# as §2, with “Duplicate samples were removed from the cultures at a density of 2.5×10^8 (Dense), diluted in pre-heated M9 medium to the density of 3×10^4 (M9) or diluted in pre-heated M9 applied with 1 μg/ml of one of the synthesized EDFs (SEQ ID NOs: 1-6).” left out
# [5] = EDF 10 units/ml (titrated supernatant)
# [6] = EDF 1 units/ml (titrated supernatant)
substance,measurement,setting,value
"Asn-Asn-Trp-Asn-Asn (NNWNN; Chemically synthesized WT EDF) [linear pentapeptide NNWNN, extracellular death factor of E. coli; purified from supernatant and chemically synthesized]",sensitivity of EDF to pH,Effect of pH on EDF,sensitive
same,sensitivity of EDF to temperature,[1],sensitive
same,sensitivity of EDF to proteinase K,proteinase K,sensitive
same,concentrations of EDF at which cell death is mazEF-independent,[2]; chemically synthesized EDF in conjunction with an antibiotic (rafamycin),over 500 ng/ml
same,concentrations of EDF at which cell death is mazEF-dependent,[2]; chemically synthesized EDF in conjunction with an antibiotic,1 to 500 ng/mL
same,concentrations of EDF at which cell death is mazEF-dependent,[3],1 to 10 µg/mL
same,concentrations of EDF at which cell death is mazEF-independent,[3],> 10 µg/mL
same,% Survival of recipient culture in response to added EDF,MC4100relA^+; EDF 1 units/ml (titrated supernatant of dense MC4100relA^+ culture),8.0 ± 5.0%
same,% Survival of recipient culture in response to added EDF,MC4100relA^+; [5],7.0 ± 2.0%
same,% Survival of recipient culture in response to added EDF,K-38; [6],17.0 ± 4.2%
same,% Survival of recipient culture in response to added EDF,K-38; [5],12.0 ± 6.6%
same,% Survival of recipient culture in response to added EDF,MG1655; [6],77.8 ± 3.4%
same,% Survival of recipient culture in response to added EDF,MG1655; [5],19.6 ± 4.5%
same,% Survival of recipient culture in response to added EDF,W3110; [6],15.0 ± 3.6%
same,% Survival of recipient culture in response to added EDF,W3110; [5],14.0 ± 2.3%
same,mazEF-mediated cell death in a diluted culture,"[4]; induced by chloramphenicol 50 μg/ml, 20 minutes",enhanced mazEF-mediated cell death
same,mazEF-mediated cell death in a diluted culture,"[4]; induced by rifampicin in different E. Coli strains (MC4100relA^+, K38, W3110)",enhanced mazEF-mediated cell death
same,mazEF-mediated cell death in a diluted culture,"[4]; induced by trimethoprim 2 μg/ml, 1 hour",enhanced mazEF-mediated cell death
same,% Cell killing following mazEF induction with rifampicin,E. coli MC4100relA^+,99.5%
"GNWNN: Mutated EDF pentapeptide, glycine in position 1 (Chemically synthesized mutant EDF derivative)",% Cell killing following mazEF induction with rifampicin,E. coli MC4100relA^+,9%
same,inhibition of wild type EDF activity,E. Coli NC4100relA^+,capable of antagonizing
"NGWNN: Mutated EDF pentapeptide, glycine in position 2 (Chemically synthesized mutant EDF derivative)",% Cell killing following mazEF induction with rifampicin,E. coli MC4100relA^+,51%
"NNGNN: Mutated EDF pentapeptide, glycine in position 3 (Chemically synthesized mutant EDF derivative)",% Cell killing following mazEF induction with rifampicin,E. coli MC4100relA^+,41%
NNNWNNN (Chemically synthesized modified EDF derivative) [heptapeptide derivative of EDF],EDF activity,E. Coli MC41relA^+,partial activity
"NNWGN: Mutated EDF pentapeptide, glycine in position 4 (Chemically synthesized mutant EDF derivative)",% Cell killing following mazEF induction with rifampicin,E. coli MC4100relA^+,72%
"NNWNG: Mutated EDF pentapeptide, glycine in position 5 (Chemically synthesized modified EDF derivative)",% Cell killing following mazEF induction with rifampicin,E. coli MC4100relA^+,19%
same,inhibition of wild type EDF activity,E. Coli NC4100relA^+,capable of antagonizing
NNWNQ: EDF pentapeptide with Asn replaced by Gln at the last position (Chemically synthesized modified EDF derivative),EDF activity,E. Coli MC41relA^+,only a partial reduction in EDF activity
QNWNN: EDF pentapeptide with Asn replaced by Gln at the first position (Chemically synthesized modified EDF derivative),EDF activity,E. Coli MC41relA^+,only a partial reduction in EDF activity
